From ChEMBL document CHEMBL1141930, “N-methylsansalvamide a peptide analogues. Potent new antitumor agents” (J Med Chem, 2005)
≈ marks a conversion by molar mass, not a printed value. One block for each compound: values may come before it. Calls of active or inactive are those of the source. The calls are words filed in the database; no cut-off is given here. Where a SMILES comes first, the peptide text is derived from it. [ ]: non-standard residue; d: D form. NMePhe(4-Br) = CN[C@@H](Cc1ccc(Br)cc1)C(=O)O; Phe(4-Br) = N[C@@H](Cc1ccc(Br)cc1)C(=O)O; NMeF = CN[C@@H](Cc1ccccc1)C(=O)O; Hica(2S) = CC(C)C[C@H](O)C(=O)O; NMeL = CN[C@@H](CC(C)C)C(=O)O; NMeV = CN[C@H](C(=O)O)C(C)C

Tests used:
MDA-MB-231 [1] = experiment: Effect of N-methylation in MDA-MB-231 human […] cancer cells; exibit high potency; assay type: functional, cell-based
PC-3 [2] = experiment: Effect of N-methylation in PC-3 human prostate cancer cells; exhibited more potency; assay type: functional, cell-based
MDA-MB-231 [3] = experiment: Effect of N-methylation in MDA-MB-231 human […] cancer cells; exibit less potency; assay type: functional, cell-based
PC-3 [4] = experiment: Concentration at which the compound exibit more potency against PC-3 human prostate cancer cells; assay type: functional, cell-based
MDA-MB-231 [5] = experiment: Concentration at which the compound exibit more potency against MDA-MB-231 human […] cancer cells; assay type: functional, cell-based
Cancer cell lines [6] = experiment: Concentration at which the compound exibit more potency agains AsPC-1 human pancreatic cancer cells; assay type: functional, cell-based
Cancer cell lines [7] = experiment: Inhibitory activity against S2-013 human pancreatic cancer cells; demonstarted good activity; assay type: functional, cell-based
WM-115 [8] = experiment: Concentration at which the compound exibit good activity WM-115 human melanoma cells; assay type: functional, cell-based
MDA-MB-231 [9] = experiment: Inhibitory activity against MDA-MB-231 cells; demonstarted high activity; assay type: functional, cell-based; conditions: Homo sapiens
PC-3 [10] = experiment: Effect of N-methylation in PC-3 human prostate cancer cells; assay type: functional, cell-based
MDA-MB-231 [11] = experiment: Inhibitory activity against MDA-MB-231 cells; exhibited moderate activity; assay type: functional, cell-based; conditions: Homo sapiens
Cancer cell lines [12] = experiment: Potency exhibited by the compound against well-differentiated S2-013 human pancreatic cancer cell line; much more potent; assay type: functional, cell-based
PC-3 [13] = experiment: Effective concentration against PC-3 human prostate cancer cells; assay type: functional, cell-based
Cancer cell lines [14] = experiment: Inhibitory activity against AsPC-1 human pancreatic cancer cells; demonstarted good activity; assay type: functional, cell-based
MDA-MB-231 [15] = experiment: Inhibitory activity against MDA-MB-231 human […] cancer cells; demonstarted good activity; assay type: functional, cell-based
PC-3 [16] = experiment: Inhibitory activity against PC-3 human prostate cancer cells; demonstarted good activity; assay type: functional, cell-based
[17] = Mean inhibitory concentration against cancer cell lines; assay type: functional, cell-based, Homo sapiens
WM-115 [18] = experiment: Potency against human WM-115 cells; exhibited average potency; assay type: functional, cell-based
PC-3 [19] = experiment: Effect of N-methylation in PC-3 human prostate cancer cells; exhibited lowest activity; assay type: functional, cell-based

SMILES: CC(C)C[C@@H]1NC(=O)[C@H](Cc2ccc(Br)cc2)NC(=O)[C@H](CC(C)C)NC(=O)[C@H](C(C)C)NC(=O)[C@H](CC(C)C)NC1=O (cyclo([Phe(4-Br)]LLVL))
- Activity (MDA-MB-231 [1]): Potent
- Activity (PC-3 [2]): More potent

SMILES: CC(C)C[C@@H]1NC(=O)[C@H](C(C)C)NC(=O)[C@H](CC(C)C)N(C)C(=O)[C@H](CC(C)C)NC(=O)[C@H](Cc2ccccc2)NC1=O (cyclo(FL[NMeL]VL))
- Activity (MDA-MB-231 [3]): Potent

SMILES: CC(C)C[C@@H]1NC(=O)[C@H](Cc2ccc(Br)cc2)NC(=O)[C@H](CC(C)C)N(C)C(=O)[C@H](C(C)C)NC(=O)[C@H](CC(C)C)NC1=O (cyclo([Phe(4-Br)]LLV[NMeL]))
- Concentration (PC-3 [4]): 10 µM
- Concentration (MDA-MB-231 [5]): 10 µM
- Concentration (Cancer cell lines [6]): 10 µM
- Activity (Cancer cell lines [7]): Active
- Concentration (WM-115 [8]): 10 µM

SMILES: CC(C)C[C@@H]1NC(=O)[C@H](C(C)C)NC(=O)[C@H](CC(C)C)N(C)C(=O)[C@H](CC(C)C)NC(=O)[C@H](Cc2ccc(Br)cc2)NC1=O (cyclo([Phe(4-Br)]L[NMeL]VL))
- Activity (MDA-MB-231 [3]): Potent
- Activity (MDA-MB-231 [9]): Active
- Activity (PC-3 [10]): Not Very Active

SMILES: CC(C)C[C@@H]1NC(=O)[C@H](Cc2ccc(Br)cc2)NC(=O)[C@H](CC(C)C)NC(=O)[C@H](C(C)C)N(C)C(=O)[C@H](CC(C)C)NC1=O (cyclo([Phe(4-Br)]LL[NMeV]L))
- Activity (MDA-MB-231 [11]): Active

- EC50 (PC-3 [13]): 7.5 µM
SMILES: CC(C)C[C@@H]1NC(=O)[C@H](C(C)C)NC(=O)[C@H](CC(C)C)NC(=O)[C@H](CC(C)C)N(C)C(=O)[C@H](Cc2ccc(Br)cc2)NC1=O (cyclo([Phe(4-Br)][NMeL]LVL))
- Activity (Cancer cell lines [12]): Active
- Concentration (PC-3 [4]): 10 µM
- Concentration (MDA-MB-231 [5]): 10 µM
- Activity (Cancer cell lines [14]): Active

SMILES: CC(C)C[C@@H]1NC(=O)[C@H](CC(C)C)NC(=O)[C@H](Cc2ccc(Br)cc2)N(C)C(=O)[C@H](CC(C)C)NC(=O)[C@H](C(C)C)NC1=O (cyclo([NMePhe(4-Br)]LLVL))
- Activity (MDA-MB-231 [15]): Active
- Activity (PC-3 [16]): Active
- Activity (Cancer cell lines [7]): Active
- Activity (Cancer cell lines [14]): Active
- Concentration (WM-115 [8]): 10 µM

- IC50 [17]: 27.4 µg/mL (≈ 46.7 µM)
SMILES: CC(C)C[C@@H]1NC(=O)[C@H](C(C)C)NC(=O)[C@H](CC(C)C)OC(=O)[C@H](CC(C)C)NC(=O)[C@H](Cc2ccccc2)NC1=O (cyclo(FL[Hica(2S)]VL))

SMILES: CC(C)C[C@@H]1NC(=O)[C@H](Cc2ccccc2)NC(=O)[C@H](CC(C)C)NC(=O)[C@H](C(C)C)N(C)C(=O)[C@H](CC(C)C)NC1=O (cyclo(FLL[NMeV]L))
- Activity (MDA-MB-231 [11]): Active

SMILES: CC(C)C[C@@H]1NC(=O)[C@H](Cc2ccccc2)NC(=O)[C@H](CC(C)C)NC(=O)[C@H](C(C)C)NC(=O)[C@H](CC(C)C)NC1=O (cyclo(FLLVL))
- Activity (MDA-MB-231 [3]): Potent
- Activity (WM-115 [18]): Active
- Activity (PC-3 [19]): Not Very Active

SMILES: CC(C)C[C@@H]1NC(=O)[C@H](C(C)C)NC(=O)[C@H](CC(C)C)NC(=O)[C@H](CC(C)C)N(C)C(=O)[C@H](Cc2ccccc2)NC1=O (cyclo(F[NMeL]LVL))
- Activity (MDA-MB-231 [3]): Potent
- Activity (PC-3 [10]): Not Very Active

SMILES: CC(C)C[C@@H]1NC(=O)[C@H](Cc2ccccc2)NC(=O)[C@H](CC(C)C)N(C)C(=O)[C@H](C(C)C)NC(=O)[C@H](CC(C)C)NC1=O (cyclo(FLLV[NMeL]))
- Activity (MDA-MB-231 [11]): Active

SMILES: CC(C)C[C@@H]1NC(=O)[C@H](CC(C)C)NC(=O)[C@H](Cc2ccccc2)N(C)C(=O)[C@H](CC(C)C)NC(=O)[C@H](C(C)C)NC1=O (cyclo([NMeF]LLVL))
- Activity (MDA-MB-231 [3]): Potent
- Activity (PC-3 [10]): Not Very Active
